# Laboratory results from patent publication US20020025306A1, “Methods of increasing the glucose responsiveness of pancreatic ss-cells” (priority 2000, published 2002).
# Assays:
# [1] = test system: CDM5 cells (β-tcTet cells); assay: Cell membrane potential measured with the bis-oxonol assay; assay type: cell-based
# Description: In order to test the bioefficacy of GLP-1, which was believed to be secreted by β-1081 cells, the supernatant of the 1081 cells were kept for 4 hours in 25 mM KRBH. CDM5 cells (a type of β-cTCtet cell) were then stimulated with this supernatant. Next, the effect of this stimulation in cell membrane potential was measured using the bis-oxonol assay.
# Those skilled in the art will recognize that GLP-1 has the effect of depolarizing the cell membrane upon application. This depolarization is the result of the stimulatory effect of GLP-1 on cAMP, which, as discussed above, leads to increased insulin secretion. The increased insulin secretion is the result of both the enhanced closing of ATP sensitive potassium (K^+ ATP) channels in the membrane of the β-cell as well as the protein kinase A activation of distal exocytotic events.
# The cells were allowed to equilibrate in 8 mM glucose and 400 μM Diazoxide for 600 seconds. At 200, 400, 600, 800, and 1000 seconds, 1, 2, 4, 6, and 8 nM GLP-1-gly8, respectively, were added to the medium.
# In this experiment, the cells were equilibrated at 8 mM glucose and 400 μM of diazoxide for 600 seconds. At t=100 seconds, 100 nM of Exendine-(9-39) was added. […] At t=600 seconds, 20 μl of water was added as a dilution control.
# Again, the cells were allowed to equilibrate at 8 mM glucose and 400 μM Diazoxide for 600 seconds. At 200 seconds, 24 μl of the supernatant of the GLP-1 secreting 1081 cells were added to the cells. […] At 1500 seconds, 24 μl of the supernatant was added.
# Exendine (9-39) is an inhibitor of GLP-1 activity. […] In this experiment, the equilibration period lasted from time […]. At t=200 seconds, […] of Exendine (9-39) was added to the cells.
# [2] = test system: diabetic mice implanted with encapsulated CDM3D cells; assay: In vivo evaluation of GLP-1-gly8 injected intraperitoneally in diabetic mice implanted with encapsulated CDM3D cells
# Source text: The effect observed in the control group can probably be attributed to the few remaining islets (β-cells) in the pancreas of the mice that remain functional following streptozocin treatment.
# [3] = comparison of GLP-1-gly8 and wild type GLP-1; cited from earlier work
Compound,"membrane potential ([1]; 8 mM glucose and 400 μM Diazoxide, 2×10^6 cells, FIG. 6)","membrane potential ([1]; 400 μm Diazoxide at t=2800 s, FIG. 2)","membrane potential ([1]; 8 nM GLP-1-gly8, cells in 8 mM glucose and 400 μM Diazoxide, FIG. 3)","membrane potential ([1]; 1, 2, 4, 6 nM GLP-1-gly8, cells in 8 mM glucose and 400 μM Diazoxide, FIG. 3)","membrane potential ([1]; GLP-1-gly8 after exposure of the cells to Exendine-(9-39), FIG. 4)","glycemia after injection, test group ([2]; 0.1 nmol IP at t=0, streptozocin-diabetic mice implanted IP with encapsulated CDM3D cells, first two hours, FIG. 1)","glycemia after injection, control group ([2]; 0.1 nmol IP at t=0, streptozocin-diabetic non-implanted mice, FIG. 1)","loss of the effect on glycemia in the test group ([2]; 0.1 nmol IP, implanted diabetic mice) [min]",half-life [3]
CC1=NS(=O)(=O)c2cc(Cl)ccc2N1 [Diazoxide],maximum hyperpolarization,maximum depolarization,,,,,,,
"GLP-1-gly8: commercial GLP-1-gly8, given rather than wild-type GLP-1; half-life longer than wild type GLP-1 (HDEFERHGEGTFTSDVSSYLEGQAAKEFIAWLVKGRG; Glucagon-like peptide 1; UniProt P01275 92-128, looked up, variant A8G)",,,saturation of the effect,depolarization of the cell membrane,no response was observed,large decrease in glycemia,smaller (and shorter decrease) in glycemia,120,longer than the half-life of wild type GLP-1
